Where only a bound is given, the exact number is not on record here.

For the experiment, the target named is human neprilysin (EC 3.4.24.11; NEP) (Homo sapiens (Human), UniProt P08473). Briefly: In vitro enzyme inhibition assay at human NEP (fluorogenic peptide substrate). The note with it: pKi values at human NEP, recombinant human NEP. Type of experiment: biochemical. In a few lines: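 pKi derived from apparent Ki fitted as v=v0/[1+(I/K′)] to Ex320/Em405 fluorescence. Compounds (pM to 10 μM) sat with recombinant human enzyme 30 min at 37 °C before 10 μM fluorogenic Mca peptide was added in HEPES pH 7.5 buffer with 10 μM ZnSO4; 20 min reaction, acetic acid quench.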
Sequence of human neprilysin (EC 3.4.24.11; NEP) (P08473 52-750): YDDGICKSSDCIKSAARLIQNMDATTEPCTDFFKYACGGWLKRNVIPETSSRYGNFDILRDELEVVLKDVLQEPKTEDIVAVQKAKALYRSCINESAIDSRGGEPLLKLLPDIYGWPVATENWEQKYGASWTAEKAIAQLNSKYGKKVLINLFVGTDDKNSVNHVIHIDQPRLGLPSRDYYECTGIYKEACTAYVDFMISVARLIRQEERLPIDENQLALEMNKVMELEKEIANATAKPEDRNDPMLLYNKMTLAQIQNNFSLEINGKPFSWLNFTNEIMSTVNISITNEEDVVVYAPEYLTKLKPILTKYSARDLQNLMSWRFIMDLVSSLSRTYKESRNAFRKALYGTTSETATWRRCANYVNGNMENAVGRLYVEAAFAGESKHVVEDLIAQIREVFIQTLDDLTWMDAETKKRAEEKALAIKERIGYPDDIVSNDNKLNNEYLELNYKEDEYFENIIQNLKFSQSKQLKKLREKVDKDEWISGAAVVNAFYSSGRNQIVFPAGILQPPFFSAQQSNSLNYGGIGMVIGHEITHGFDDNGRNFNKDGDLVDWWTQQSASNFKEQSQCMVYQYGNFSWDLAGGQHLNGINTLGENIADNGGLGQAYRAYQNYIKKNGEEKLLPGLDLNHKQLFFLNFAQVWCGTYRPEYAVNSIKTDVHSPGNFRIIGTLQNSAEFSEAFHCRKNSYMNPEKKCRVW
For the compound `O=C(N[C@H](Cc1ccc(-c2ccccc2)cc1)C[C@@H](O)C(=O)O)c1cc(-c2cccnc2)[nH]n1` [Example 15-21, (2R,4R)-5-Biphenyl-4-yl-2-hydroxy-4-[(5-pyridin-3-yl-1H-pyrazole-3-carbonyl)-amino]-pentanoic acid], the pKi was not below 9.0.
On to `O=C(N[C@H](Cc1ccc(-c2ccccc2)cc1)CC(O)C(=O)O)c1cc(-c2cnccn2)[nH]n1` (stereo partly drawn) [Example 15-22, (R)-5-Biphenyl-4-yl-2-hydroxy-4-[(5-pyrazin-2-yl-1H-pyrazole-3-carbonyl)amino]-pentanoic acid], for which the Ki is 1.26 to 10 nM.
For `Cn1cc(-c2cc(C(=O)N[C@H](Cc3ccc(-c4ccccc4)cc3)CC(O)C(=O)O)n[nH]2)cn1` (stereo partly drawn) [Example 15-23, (R)-5-Biphenyl-4-yl-2-hydroxy-4-[(1′-methyl-2H, 1′H-[3,4′]bipyrazolyl-5-carbonyl)amino]-pentanoic acid], the Ki was 12.6 to 100 nM.
Consider `O=C(N[C@H](Cc1ccc(-c2ccccc2)cc1)CC(O)C(=O)O)c1cc(-c2ccccc2Cl)[nH]n1` (stereo partly drawn) [Example 15-24, (R)-5-Biphenyl-4-yl-4-{[5-(2-chlorophenyl)-1H-pyrazole-3-carbonyl]amino}-2-hydroxy-pentanoic acid], for which the inhibition constant Ki was 1.26 to 10 nM.
Consider `O=C(N[C@H](Cc1ccc(-c2ccccc2)cc1)C[C@@H](O)C(=O)O)c1cc(-c2cccc(Cl)c2)[nH]n1` [Example 15-25, (2R,4R)-5-Biphenyl-4-yl-4-{[5-(3-chlorophenyl)-1H-pyrazole-3-carbonyl]-amino}-2-hydroxy-pentanoic acid], for which the pKi was not below 9.0.
Still for that read-out and setting: under `O=C(N[C@H](Cc1ccc(-c2ccccc2)cc1)C[C@@H](O)C(=O)O)c1cc(-c2ccc(Cl)cc2Cl)[nH]n1` [Example 15-26, (2R,4R)-5-Biphenyl-4-yl-4-{[5-(2,4-dichlorophenyl)-1H-pyrazole-3-carbonyl]-amino}-2-hydroxy-pentanoic acid] stands not below 9.0.
Take `O=C(N[C@H](Cc1ccc(-c2ccccc2)cc1)C[C@@H](O)C(=O)O)c1cc(-c2cc(Cl)ccc2Cl)[nH]n1` [Example 15-27, (2R,4R)-5-Biphenyl-4-yl-4-{[5-(2,5-dichlorophenyl)-1H-pyrazole-3-carbonyl]-amino}-2-hydroxy-pentanoic acid]: the pKi is given as not below 9.0.
In the case of `O=C(N[C@H](Cc1ccc(-c2ccccc2)cc1)C[C@@H](O)C(=O)O)c1cc(-c2ccccc2O)[nH]n1` [Example 15-28, (2R,4R)-5-Biphenyl-4-yl-2-hydroxy-4-{[5-(2-hydroxy-phenyl)-1H-pyrazole-3-carbonyl]-amino}-pentanoic acid], the negative-log Ki (pKi) was not below 9.0.
Regarding `O=C(N[C@H](Cc1ccc(-c2ccccc2)cc1)C[C@@H](O)C(=O)O)c1cc(-c2ccccc2O)n(CC(O)CO)n1` (stereo partly drawn) [Example 15-30, (2R,4R)-5-Biphenyl-4-yl-4-{[1-(2,3-dihydroxy-propyl)-5-(2-hydroxy-phenyl)-1H-pyrazole-3-carbonyl]-amino}-2-hydroxy-pentanoic acid], the pKi is reported as not below 9.0.
Consider `CC(=O)Nc1cccc(-c2cc(C(=O)N[C@H](Cc3ccc(-c4ccccc4)cc3)CC(O)C(=O)O)n[nH]2)c1` (stereo partly drawn) [Example 15-31, (R)-4-{[5-(3-Acetylamino-phenyl)-1H-pyrazole-3-carbonyl]amino}-5-biphenyl-4-yl-2-hydroxypentanoic acid], for which the Ki was 1.26 to 10 nM.
In the case of `COc1ccccc1C(=O)Nc1cc(C(=O)N[C@H](Cc2ccc(-c3ccccc3)cc2)C[C@@H](O)C(=O)O)n[nH]1` [Example 15-32, (2R,4R)-5-Biphenyl-4-yl-2-hydroxy-4-{[5-(2-methoxy-benzoylamino)-1H-pyrazole-3-carbonyl]-amino}-pentanoic acid], the Ki was 1.26 to 10 nM.
Take `O=C(N[C@H](Cc1ccc(-c2ccccc2)cc1)C[C@@H](O)C(=O)O)c1cc(-c2ccccc2)[nH]n1` [Example 15-33, (2R,4R)-5-Biphenyl-4-yl-2-hydroxy-4-[(5-phenyl-1H-pyrazole-3-carbonyl)-amino]-pentanoic acid]: the pKi is not below 9.0.
Consider `Cn1nc(C(=O)N[C@H](Cc2ccc(-c3ccccc3)cc2)CC(O)C(=O)O)cc1-c1ccccc1` (stereo partly drawn) [Example 15-34, (R)-5-Biphenyl-4-yl-2-hydroxy-4-[(1-methyl-5-phenyl-1H-pyrazole-3-carbonyl)amino]-pentanoic acid], for which the inhibitory constant (Ki) was 1.26 to 10 nM.
For the compound `O=C(O)Cn1nc(C(=O)N[C@H](Cc2ccc(-c3ccccc3)cc2)C[C@@H](O)C(=O)O)cc1-c1ccccc1` [Example 15-35, (2R,4R)-5-Biphenyl-4-yl-4-[(1-carboxymethyl-5-phenyl-1H-pyrazole-3-carbonyl)-amino]-2-hydroxy-pentanoic acid], the negative-log Ki (pKi) is recorded as not below 9.0.
With `O=C(O)CCn1nc(C(=O)N[C@H](Cc2ccc(-c3ccccc3)cc2)C[C@@H](O)C(=O)O)cc1-c1ccccc1` [Example 15-36, (2R,4R)-5-Biphenyl-4-yl-4-{[1-(2-carboxy-ethyl)-5-phenyl-1H-pyrazole-3-carbonyl]-amino}-2-hydroxy-pentanoic acid], the inhibition constant (Ki) is 1.26 to 10 nM.
For `O=C(N[C@H](Cc1ccc(-c2ccccc2)cc1)CC(O)C(=O)O)c1cc(-c2ccco2)[nH]n1` (stereo partly drawn) [Example 15-37, (R)-5-Biphenyl-4-yl-4-[(5-furan-2-yl-1H-pyrazole-3-carbonyl)amino]-2-hydroxy-pentanoic acid], the inhibition constant Ki is 1.26 to 10 nM.
Turning to `O=C(N[C@H](Cc1ccc(-c2ccccc2)cc1)CC(O)C(=O)O)c1cc(-c2ccc3ccccc3c2)[nH]n1` (stereo partly drawn) [Example 15-38, (R)-5-Biphenyl-4-yl-2-hydroxy-4-[(5-naphthalen-2-yl-1H-pyrazole-3-carbonyl)amino]-pentanoic acid], the Ki was 1.26 to 10 nM.
Take `O=C(N[C@H](Cc1ccc(-c2ccccc2)cc1)CC(O)C(=O)O)c1cc(-c2ccc(-c3ccccc3)cc2)[nH]n1` (stereo partly drawn) [Example 15-39, (R)-5-Biphenyl-4-yl-4-[(5-biphenyl-4-yl-1H-pyrazole-3-carbonyl)amino]-2-hydroxy-pentanoic acid]: the inhibition constant (Ki) is 12.6 to 100 nM.
Still for that read-out and setting: the figure for `O=C(N[C@H](Cc1ccc(-c2ccccc2)cc1)CC(O)C(=O)O)c1cc(-c2ccc(Cl)cc2)[nH]n1` (stereo partly drawn) [Example 15-40, (R)-5-Biphenyl-4-yl-4-{[5-(4-chlorophenyl)-1H-pyrazole-3-carbonyl]amino}-2-hydroxy-pentanoic acid] is 1.26 to 10 nM; for `O=C(N[C@H](Cc1ccc(-c2ccccc2)cc1)CC(O)C(=O)O)c1cc(C(=O)N2CCC(O)C2)n[nH]1` (stereo partly drawn) [Example 15-42, (R)-5-Biphenyl-4-yl-2-hydroxy-4-{[5-(3-hydroxypyrrolidine-1-carbonyl)-2H-pyrazole-3-carbonyl]-amino}-pentanoic acid] it is not above 1 nM; for `NC(=O)C1CCN(C(=O)c2cc(C(=O)N[C@H](Cc3ccc(-c4ccccc4)cc3)C[C@H](O)C(=O)O)[nH]n2)C1` (stereo partly drawn) [Example 15-44, (2S,4R)-5-Biphenyl-4-yl-4-{[5-(3-carbamoylpyrrolidine-1-carbonyl)-2H-pyrazole-3-carbonyl]-amino}-2-hydroxy-pentanoic acid] it is 1.26 to 10 nM.
On to `NC(=O)C1CCN(C(=O)c2cc(C(=O)N[C@H](Cc3ccc(-c4ccccc4)cc3)C[C@@H](O)C(=O)O)[nH]n2)C1` (stereo partly drawn) [Example 15-46, (2R,4R)-5-Biphenyl-4-yl-4-{[5-(3-carbamoylpyrrolidine-1-carbonyl)-2H-pyrazole-3-carbonyl]-amino}-2-hydroxy-pentanoic acid], for which the pKi is given as not below 9.0.
On to `O=C(N[C@H](Cc1ccc(-c2ccccc2)cc1)C[C@@H](O)C(=O)O)c1cc(C(=O)N2CCC(O)CC2)n[nH]1` [Example 15-48, (2R,4R)-5-Biphenyl-4-yl-2-hydroxy-4-{[5-(4-hydroxypiperidine-1-carbonyl)-2H-pyrazole-3-carbonyl]-amino}-pentanoic acid], for which the negative-log Ki (pKi) is listed as not below 9.0.
For the compound `O=C(N[C@H](Cc1ccc(-c2ccccc2)cc1)C[C@H](O)C(=O)O)c1cc(C(=O)N2CCC(O)CC2)n[nH]1` [Example 15-50, (2S,4R)-5-Biphenyl-4-yl-2-hydroxy-4-{[5-(4-hydroxypiperidine-1-carbonyl)-2H-pyrazole-3-carbonyl]-amino}-pentanoic acid], the inhibition constant (Ki) was 12.6 to 100 nM.
As to `O=C(N[C@H](Cc1ccc(-c2ccccc2)cc1)CC(O)C(=O)O)c1cc(C(=O)N2CCOCC2)n[nH]1` (stereo partly drawn) [Example 15-53, (R)-5-Biphenyl-4-yl-2-hydroxy-4-{[5-(morpholine-4-carbonyl)-2H-pyrazole-3-carbonyl]amino}pentanoic acid], the inhibition constant (Ki) was 1.26 to 10 nM.
Consider `O=C(NC1CC1)c1cc(C(=O)N[C@H](Cc2ccc(-c3ccccc3)cc2)C[C@H](O)C(=O)O)[nH]n1` [Example 15-55, (2S,4R)-5-Biphenyl-4-yl-4-[(5-cyclopropylcarbamoyl-2H-pyrazole-3-carbonyl)-amino]-2-hydroxypentanoic acid], for which the Ki is 12.6 to 100 nM.
The same measure, in the same setting: the figure for `O=C(O)CNC(=O)c1cc(C(=O)N[C@H](Cc2ccc(-c3ccccc3)cc2)CC(O)C(=O)O)[nH]n1` (stereo partly drawn) [Example 15-56, (R)-5-Biphenyl-4-yl-4-{[5-(carboxymethyl-carbamoyl)-2H-pyrazole-3-carbonyl]-amino}-2-hydroxy-pentanoic acid] is 1.26 to 10 nM.
On to `O=C(NC1CC1)c1cc(C(=O)N[C@H](Cc2ccc(-c3ccccc3)cc2)C[C@@H](O)C(=O)O)[nH]n1` [Example 15-57, (2R,4R)-5-Biphenyl-4-yl-4-[(5-cyclopropylcarbamoyl-2H-pyrazole-3-carbonyl)-amino]-2-hydroxypentanoic acid], for which the pKi is recorded as not below 9.0.
`NC(=O)c1cc(C(=O)N[C@H](Cc2ccc(-c3ccccc3)cc2)CC(O)C(=O)O)[nH]n1` (stereo partly drawn) [Example 15-59, (R)-5-Biphenyl-4-yl-4-[(5-carbamoyl-2H-pyrazole-3-carbonyl)-amino]-2-hydroxy-pentanoic acid]: the Ki is 1.26 to 10 nM.
In the case of `CNC(=O)c1cc(C(=O)N[C@H](Cc2ccc(-c3ccccc3)cc2)C[C@@H](O)C(=O)O)[nH]n1` [Example 15-60, (2R,4R)-5-Biphenyl-4-yl-2-hydroxy-4-[(5-methylcarbamoyl-2H-pyrazole-3-carbonyl)-amino]pentanoic acid], the negative logarithm of the Ki (pKi) is given as not below 9.0.

One may read the pKi as the Ki on a negative log10 scale, so that one unit is a factor of ten. As usually defined, the Ki is the dissociation constant of the complex between target and ligand, obtained from inhibition or displacement.
